The structures appear in SMILES notation. pIC50: −log10 of the molar value. Some results are limits rather than exact numbers.

What all share (format): biochemical
One assay addresses wild type B-Raf (Homo sapiens (Human), UniProt P15056). The assay is described as follows: WT BRaf IC50 assay, TR-FRET. The settings on record: for Braf-WT Km ATP, % at 100 nM: at 100 nM compound. The arrangement: Braf-WT Km ATP, % at 100 nM: scale not given here. Here is the method:
WT BRaf IC50 Assay Protocol
Compounds disclosed herein were tested against wild type B-Raf (PV3848, from Invitrogen) in a time-resolved fluorescence energy transfer assay. […] The enzyme was incubated with the compounds disclosed herein at room temperature for 120 minutes and the reactions were initiated by the addition of ATP and GST-MEK1. After incubating at room temperature for 60 minutes, an equal volume of stop buffer containing 25 mM Tris pH7.4, 400 mM KF, 50 mM EDTA, 0.1% BSA, 0.01% Triton X-100, 1 test of Eu3+Cryptate-conjugated rabbit polyclonal antibody anti-Phospho MEK1/2 (Ser217/221) and 1 test of d2-conjugated mouse monoclonal antibody anti-glutathione S-transferase was added to stop the reactions. Plates were sealed and incubated at room temperature for 1.5 hours, and then the TR-FRET signals were read on BMG PHERAstar FS instrument. The IC50 for each compound was calculated by non linear regression by Graphpad Prism software.
In general terms: Time-resolved FRET reads energy transfer from a long-lived donor to a nearby acceptor.

In a further assay the target is EGFR L858R kinase domain (Homo sapiens (Human), UniProt P00533, L858R). Nature of the assay: EGFR enzymatic assay, TR-FRET, EGFR L858R. Here is the method:
(§1) Compounds disclosed herein were tested against WT EGFR kinase domain (aa.669-1210, Carna Biosciences, 08-115), EGFR T790M/L858R kinase domain (aa.669-1210, Carna Biosciences, 08-510) and EGFR L858R kinase domain (aa.669-1210, Carna Biosciences, 08-502) in assays based on time-resolved fluorescence-resonance energy transfer methodology. The assay was carried out in 384-well low volume black plate in a reaction mixture containing EGFR kinases, 20 LM for EGFR WT and T790M/L858R, and 125 LM for EGFR L858R), biotin-TK substrate and 0-5 LM compounds in buffer containing 50 mM HEPES pH7.5, 10 mM MgCl2, 1 mM EGTA, 0.01% Brij-35, 2.5 mM DTT, 0.1% BSA. The kinase was incubated with the compounds disclosed herein at room temperature for 120 minutes and the reaction was initiated by the addition of ATP and biotin-TK substrate. After reaction at room temperature for 30 minutes, an equal volume of stop/detection solution was added according to the manufacture's instruction (CisBio Bioassays). The stop/detection solution contained TK-Antibody-Cryptate and Streptavidin-XL665 in buffer containing 25 mM Tris pH7.4, 400 mM KF, 50 mM EDTA, 0.01% BSA, 0.01% Triton X-100. Plates were sealed and incubated at room temperature for 1 hour, and the TR-FRET signals were read on BMG PHERAstar FS instrument. The IC50 of an inhibitor was derived from fitting the % inhibition data at each compound concentration to the four-parameter logistic equation by Graphpad Prism software.

In the next assay the target is WT EGFR kinase domain (Homo sapiens (Human), UniProt P00533). Nature of the assay: EGFR enzymatic assay, TR-FRET, WT EGFR. How it is done:
as §1

The target of assay [1] is EGFR T790M/L858R kinase domain (Homo sapiens (Human), UniProt P00533, L858R/T790M). Nature of the assay: EGFR enzymatic assay, TR-FRET, EGFR T790M/L858R. Here is the method:
as §1

The next assay addresses B-Raf (V600E) (Homo sapiens (Human), UniProt P15056, V600E). The assay is described as follows: Raf IC50 assay, TR-FRET, B-Raf (V600E). Conditions: 0.1 mM ATP; read-out: IC50 BRAF-V600E. How it is done: The enzyme was incubated with the compounds disclosed herein at room temperature for 60 minutes and the reactions were initiated by the addition of ATP and GST-MEK1. After reaction at room temperature for 60 minutes, an equal volume of stop/detection solution was added according to the manufacture's instruction (CisBio Bioassays). […] The IC50 for each compound was derived from fitting the dose-response % inhibition data to the four-parameter logistic model by Graphpad Prism software.

B-Raf (V600E), sequence (P15056 whole entry V600E): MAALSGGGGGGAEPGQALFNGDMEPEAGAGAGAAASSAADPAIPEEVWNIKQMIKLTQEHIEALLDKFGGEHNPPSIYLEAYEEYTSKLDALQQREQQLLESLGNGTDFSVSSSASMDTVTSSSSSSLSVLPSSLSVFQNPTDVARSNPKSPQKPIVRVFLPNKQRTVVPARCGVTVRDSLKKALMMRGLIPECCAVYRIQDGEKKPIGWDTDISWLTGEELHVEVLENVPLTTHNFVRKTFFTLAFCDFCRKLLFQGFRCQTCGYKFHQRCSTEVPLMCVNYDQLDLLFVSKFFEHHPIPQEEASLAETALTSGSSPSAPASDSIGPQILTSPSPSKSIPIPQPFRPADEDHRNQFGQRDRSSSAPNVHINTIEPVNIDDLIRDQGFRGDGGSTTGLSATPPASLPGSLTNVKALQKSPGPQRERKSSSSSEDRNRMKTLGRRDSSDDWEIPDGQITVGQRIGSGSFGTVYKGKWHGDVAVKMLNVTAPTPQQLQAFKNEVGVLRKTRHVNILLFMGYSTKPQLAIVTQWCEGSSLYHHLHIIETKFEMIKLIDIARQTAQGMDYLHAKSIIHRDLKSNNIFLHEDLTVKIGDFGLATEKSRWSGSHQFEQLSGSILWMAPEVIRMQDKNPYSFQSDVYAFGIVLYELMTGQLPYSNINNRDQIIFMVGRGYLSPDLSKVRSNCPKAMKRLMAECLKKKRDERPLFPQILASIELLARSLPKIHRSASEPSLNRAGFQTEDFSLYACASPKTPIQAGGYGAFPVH
EGFR T790M/L858R kinase domain, sequence (P00533 669-1210 T790M/L858R): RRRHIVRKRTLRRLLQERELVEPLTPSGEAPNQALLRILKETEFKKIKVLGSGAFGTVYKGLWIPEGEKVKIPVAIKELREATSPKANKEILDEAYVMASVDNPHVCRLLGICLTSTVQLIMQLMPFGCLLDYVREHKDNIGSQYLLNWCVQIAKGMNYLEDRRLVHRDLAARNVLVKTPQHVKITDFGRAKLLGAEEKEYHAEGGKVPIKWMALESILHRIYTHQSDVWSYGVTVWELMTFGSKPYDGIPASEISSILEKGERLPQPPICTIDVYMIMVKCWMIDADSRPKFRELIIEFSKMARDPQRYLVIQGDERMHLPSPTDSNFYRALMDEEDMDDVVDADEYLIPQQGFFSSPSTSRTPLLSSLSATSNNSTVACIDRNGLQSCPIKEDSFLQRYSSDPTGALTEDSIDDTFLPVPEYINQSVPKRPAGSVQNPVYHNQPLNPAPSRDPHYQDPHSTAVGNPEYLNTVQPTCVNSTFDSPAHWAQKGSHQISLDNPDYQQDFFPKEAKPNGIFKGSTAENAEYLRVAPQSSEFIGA
wild type B-Raf, sequence (P15056 whole entry): as the sequence (P15056 whole entry V600E) above, with E600V counted along it
EGFR L858R kinase domain, sequence (P00533 669-1210 L858R): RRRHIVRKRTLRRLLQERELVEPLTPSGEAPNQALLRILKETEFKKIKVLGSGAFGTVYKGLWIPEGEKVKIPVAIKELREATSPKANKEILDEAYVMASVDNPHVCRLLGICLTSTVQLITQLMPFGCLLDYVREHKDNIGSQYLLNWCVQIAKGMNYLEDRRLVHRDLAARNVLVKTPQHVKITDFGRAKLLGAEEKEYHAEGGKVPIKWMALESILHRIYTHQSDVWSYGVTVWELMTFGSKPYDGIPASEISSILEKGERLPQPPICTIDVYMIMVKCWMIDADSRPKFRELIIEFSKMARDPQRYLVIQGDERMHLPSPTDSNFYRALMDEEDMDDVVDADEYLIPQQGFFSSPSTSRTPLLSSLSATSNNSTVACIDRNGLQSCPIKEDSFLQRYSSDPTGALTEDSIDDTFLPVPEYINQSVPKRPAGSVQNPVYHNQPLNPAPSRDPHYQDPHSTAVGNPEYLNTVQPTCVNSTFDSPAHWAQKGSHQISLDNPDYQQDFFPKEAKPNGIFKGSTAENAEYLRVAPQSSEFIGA
WT EGFR kinase domain, sequence (P00533 669-1210): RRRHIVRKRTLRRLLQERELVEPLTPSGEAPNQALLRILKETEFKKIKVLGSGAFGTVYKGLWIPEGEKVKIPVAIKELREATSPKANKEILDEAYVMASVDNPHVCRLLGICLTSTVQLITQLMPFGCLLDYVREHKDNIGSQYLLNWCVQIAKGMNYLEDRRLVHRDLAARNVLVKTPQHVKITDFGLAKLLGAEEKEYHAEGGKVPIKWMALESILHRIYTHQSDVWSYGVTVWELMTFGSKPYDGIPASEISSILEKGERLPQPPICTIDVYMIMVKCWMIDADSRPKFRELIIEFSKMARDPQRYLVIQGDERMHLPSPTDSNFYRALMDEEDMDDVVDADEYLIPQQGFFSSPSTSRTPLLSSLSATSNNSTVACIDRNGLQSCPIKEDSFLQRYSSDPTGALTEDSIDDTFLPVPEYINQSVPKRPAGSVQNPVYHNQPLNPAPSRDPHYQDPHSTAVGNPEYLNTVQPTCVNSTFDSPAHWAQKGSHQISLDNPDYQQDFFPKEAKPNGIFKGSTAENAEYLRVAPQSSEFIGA

For orientation: pIC50 means −log10 of the IC50, conventionally taken in molar units. As for `O=C1CCc2c(Oc3ccc4c(c3)[C@H]3[C@H](NC(=O)c5ccc(F)c(F)c5)[C@H]3O4)ccnc2N1` [Compound 1.41], the “Braf-WT Km ATP, % at 100 nM” value at wild type B-Raf turned out to be 100% at 100 nM. For the same compound, the negative logarithm of the IC50 (pIC50) on EGFR L858R kinase domain is 7.54; on WT EGFR kinase domain, 7.23; in assay [1] it was 6.19; on B-Raf (V600E) it was 8.92.
For `O=C1CCc2c(Oc3ccc4c(c3)[C@H]3[C@H](NC(=O)c5ccccc5F)[C@H]3O4)ccnc2N1` [Compound 1.38] the same measures were 84% at 100 nM, 7.10, 6.37, 5.50 and 8.33.
On to `O=C1CCc2c(Oc3ccc4c(c3)[C@H]3[C@H](NC(=O)c5ccc(F)cc5)[C@H]3O4)ccnc2N1` [Compound 1.36], for which the “Braf-WT Km ATP, % at 100 nM” value on wild type B-Raf is 96% at 100 nM. Further, the pIC50 at EGFR L858R kinase domain was 7.22; against WT EGFR kinase domain, 7.03; in assay [1], 6.27; on B-Raf (V600E), 8.85.
For `Cc1cccc(F)c1C(=O)N[C@@H]1[C@H]2Oc3ccc(Oc4ccnc5c4CCC(=O)N5)cc3[C@@H]12` [Compound 1.37] the same measures were 80% at 100 nM, 6.28, 5.91, less than 5.30 and 8.12.
Taken in the same sequence, the figures for `O=C(/C=C/c1cccc(C(F)(F)F)c1)N[C@@H]1[C@H]2Oc3ccc(Oc4ccnc5c4CCC(=O)N5)cc3[C@@H]12` [Compound 1.53] were 86% at 100 nM, 7.17, 6.17, 5.94 and 7.80.
For `O=C1CCc2c(Oc3ccc4c(c3)[C@H]3[C@H](NC(=O)c5cc(C(F)(F)F)ccn5)[C@H]3O4)ccnc2N1` [Compound 1.45, N-((1S,1aS,6bS)-5-((7-oxo-5,6,7,8-tetrahydro-1,8-naphthyridin-4-yl)oxy)-1a,6b-dihydro-1H-cyclopropa[b]benzofuran-1-yl)-4-(trifluoromethyl)picolinamide] the same measures were 101% at 100 nM, 8.27, 8.07, 6.98 and 8.51.
In the case of `O=C1CCc2c(Oc3ccc4c(c3)[C@H]3[C@H](NC(=O)c5ccc(-c6ccccc6)o5)[C@H]3O4)ccnc2N1` [Compound 1.54], the “Braf-WT Km ATP, % at 100 nM” value at wild type B-Raf is on record as 93% at 100 nM. The pIC50 against EGFR L858R kinase domain was 6.82; on WT EGFR kinase domain, 6.49; in assay [1], 6.12; on B-Raf (V600E), 8.31.
Take `O=C1CCc2c(Oc3ccc4c(c3)[C@H]3[C@H](NC(=O)c5ccccc5C(F)(F)F)[C@H]3O4)ccnc2N1` [Compound 1.44]: on wild type B-Raf, the “Braf-WT Km ATP, % at 100 nM” value is 93% at 100 nM. Further, the pIC50 is 7.20 against EGFR L858R kinase domain, 6.61 against WT EGFR kinase domain, less than 5.30 in assay [1] and 8.32 at B-Raf (V600E).
Turning to `N#CC1(c2cccc(C(=O)N[C@@H]3[C@H]4Oc5ccc(Oc6ccnc7c6CCC(=O)N7)cc5[C@@H]34)c2)CC1` [Compound 1.46, 3-(1-cyanocyclopropyl)-N-((1S,1aS,6bS)-5-((7-oxo-5,6,7,8-tetrahydro-1,8-naphthyridin-4-yl)oxy)-1a,6b-dihydro-1H-cyclopropa[b]benzofuran-1-yl)benzamide], the pIC50 on wild type B-Raf (Km ATP ([…] ATP), read-out: IC50 Braf-WT Km ATP) was 8.85; at EGFR L858R kinase domain, 7.28; at WT EGFR kinase domain it was 7.07; in assay [1], 6.50; on B-Raf (V600E), 8.60.

These data come from US9670231B2, “Fused tricyclic amide compounds as multiple kinase inhibitors” (BEIGENE, LTD., priority 2013, dated 2017).
